# Results: PMC7756392, “Syntheses of Thailandepsin B Pseudo‐Natural Products: Access to New Highly Potent HDAC Inhibitors via Late‐Stage Modification” (Chemistry (Weinheim an Der Bergstrasse, Germany), 2020)
# Tests used:
# Assay type in all cases: cell-based
# HeLa cells = test: MTS cell viability assay, HeLa; conditions: for GI50 (in words): MTS assay, 72 h
# Protocol: (§1) hHDAC1/6: Activity assays were performed in OptiPlateTM-96 F black microplates (PerkinElmer). Commercial available enzymes (human recombinant HDAC1; BPS Bioscience, catalog no. 50051 and human recombinant HDAC6; BPS Bioscience, catalog no. 50006) were used. Total assay volume of 60 µL contains 42 µl of assay buffer (50 mM Tris -HCl, pH 8.0, 137 mM NaCl, 2.7 mM KCl, 1 mM MgCl2, 0.2 mM TCEP and 1 mg/mL bovine serum albumin), 10 µL of enzyme solution in assay buffer, 3 µL of increasing concentrations of inhibitors in DMSO and 5 μL of the fluorogenic substrate ZMAL (Z -(Ac)Lys-AMC) (126 μM). After incubation (90 min, 37 °C) 60 µL of stop solution, containing 5 μL Trichostatin A (TSA) (33 μM) and 10 μL trypsin (6 mg/mL) in trypsin buffer (Tris-HCl 50 mM, pH 8.0, NaCl 100 mM), were added. After incubation (30 min at 37 °C) fluorescence signal (λex = 390 nm, λem = 460 nm) was measured on a BMG LABTECH POLARstar OPTIMA plate reader (BMG Labtechnologies, Germany).10 hHDAC8: Enzyme was obtained from cooperation partners (Romier).11 Assay was performed as described before. […] After incubation (30 min at 37 °C) fluorescence signal was determined as mentioned for HDAC1/6.12 […]
# (§2) Cell proliferation was determined by using the Celltiter 96 AQueous nonradioactive Proliferation Assay (Promega). After 72h of incubation time with inhibitor or DMSO, 20 µL of a mixture (20:1) consisting of MTS (3-(4,5-dimethylthiazol-2-yl)-5-(3-carboxymethoxyphenyl)-2-(4-sulfophenyl-2H-tetrazolium) and PMS (phenazine methosulfate) were added to each well. Absorption was measured after another 2-4 h with a BMG LABTECH POLARstar OPTIMA plate reader (BMG Labtechnologies, Germany).
# (§3) Experiments were performed in triplicates and GI50 values were calculated using the software Origin 2019. […]
# (§4) CO2. […] After another 20 min of incubation, the fluorescence signal (λex = 390 nm, λem = 460 nm) was measured on a BMG LABTECH POLARstar OPTIMA plate reader (BMG Labtechnologies, Germany). […]
# HL60 cells = test: MTS cell viability assay, HL60; conditions: for GI50 (in words): 72 h
# Protocol: as §1, §2, §3, §4
# HDAC in HL60 cells = test: Cellular HDAC activity assay, HL60; conditions: read-out: cellular HDAC inhibition IC50
# Protocol: Cellular trypsin-based activity assay:13 1 x 10^4 Hela cells (50 µL) were seeded in sterile dark 96-well microtiter plates (Perkin Elmer) and incubated overnight at 37 °C and 5% CO2 atmosphere. The next day, the medium was aspirated and the cells were incubated with different inhibitor concentrations or DMSO, diluted in 50 µL m edium without supplements and phenol red. After 2 h incubation time, 50 µL of the HDAC substrate MAL (Boc -Lys(Ac)-AMC) were added to a final concentration of 150 µM and the plate was incubated for 2 h at 37°C and 5%
# CO2. The reaction was stopped by adding 50 µL of stop solution (50 mM Tris, 137 mM NaCl, 1 mM MgCl2, 2.7 mM KCl, 1 µM TSA, 0.1% Igepal, 1 mg/ml Trypsin). After another 20 min of incubation, the fluorescence signal (λex = 390 nm, λem = 460 nm) was measured on a BMG LABTECH POLARstar OPTIMA plate reader (BMG Labtechnologies, Germany). […]
SMILES,GI50 (in words) (HeLa cells),GI50 (in words) (HL60 cells),IC50 (HDAC in HL60 cells),"inhibition at 5 µM (HeLa cells; Homo sapiens, 5 μM, read-out: inhibition of cell growth at 5 μM)",growth inhibition at 5 μM (in words) (HL60 cells; 5 μM)
CCCC[C@H]1NC(=O)C[C@@H](/C=C/CCSC(C)=O)OC(=O)C[C@H](O)[C@@H]([C@@H](C)CC)NC(=O)[C@@H](C)NC1=O [compound 33],nanomolar,nanomolar,0.0091 ± 0.0008 µM,–,–
CCCC[C@H]1NC(=O)C[C@@H](/C=C/CCSC(C)=O)OC(=O)C[C@H](O[Si](C)(C)C(C)(C)C)[C@@H]([C@@H](C)CC)NC(=O)[C@@H](C)NC1=O [compound 32],micromolar,micromolar,66.3 ± 3.5 µM,–,–
CCCC[C@H]1NC(=O)C[C@@H](/C=C/CCC(=O)NO)OC(=O)C[C@H](O)[C@@H]([C@@H](C)CC)NC(=O)[C@@H](C)NC1=O [compound 8],–,–,–,30%,did not inhibit growth
